Data reported in patent US20240109924A1, “IP4-4,6 SUBSTITUTED DERIVATIVE COMPOUNDS” (SANIFIT THERAPEUTICS, S.A., priority 2021, published 2024).

Assays:
tissue calcification = test: In vivo tissue calcification (calcium content by ICP-OES) in vitamin D3-induced limb ischemia rat model; conditions: SD rats, vitamin D3 150,000 IU/kg s.c. D1-D3, 30 mg/kg s.c. daily D1-D5, sacrifice D5; for Inhibition of calcification (%) Femoral: femoral arteries; for Inhibition of calcification (%) Kidney: right kidney
Experimental: (§1) The effects of compounds 1, 6, 9, 14, 18, 31, and 39 over blood perfusion and tissue calcification after the inception of limb ischemia were tested using a rat model for a duration of 5 days. Limb ischemia was induced to all groups from D1 to D3 excepting the sham group, to which no ischemia was induced. The animals were administered placebo and active agent formulations from D1 to D5. Observations were taken at several points during the treatment from D0 to D5. All animals were weighed every day before treatment. Seventy-two male Sprague Dawley (SD) rats (Envigo Corp., Huntingdon, GB) weighing approximately 150-200 g were used. The rats were fed with a […]® Rod14-H diet ([…] GmbH, Soest, DE). The rats were divided in 9 groups, 8 animals per group, as follows: • Group 1-Control (Sham) • Group 2-Physiological saline solution • Group 3-Compound 1 • Group 4-Compound 6 • Group 5-Compound 9 • Group 6-Compound 14 • Group 7-Compound 18 • Group 8-Compound 31 • Group 9-Compound 39 Limb ischemia was induced in the rats of groups 2-9 by subcutaneous administration of 150,000 IU/kg vitamin D3 (cholecalciferol, Duphafral D3 1000; Zoetis Inc., Parsippany, NJ, US) in physiological saline solution (2 mL/kg) every day during D1 to D3. The rats of group 1 were not administered vitamin D3. The rats in groups 1 and 2 were administered 2 mL/kg of physiological saline solution daily from D1 to D5 via subcutaneous route. The animals in groups 3-9 were administered subcutaneously 30 mg/kg of compounds 1, 6, 9, 14, 18, 31, and 39, respectively, in physiological saline solution (2 mL/kg), every day from D1 to D5. All rats of groups 1-9 were sacrificed on D5 30 minutes after dosing for determining their Ca baseline values. The animals were anesthetized by isoflurane inhalation. The whole aorta, carotids, femoral arteries, heart, and right kidney of the subjects were collected for calcium content measurement. The tissues were lyophilized for 48-72 h and weighed. The lyophilized tissues were then digested using a 1:1 HNO3:HClO4 mixture in a dry bath incubator for 2-4 h at 180° C. The digested tissues were subsequently diluted using ultra-pure MilliQ® water (MilliporeSigma (Merck KGaA), Burlington, MA, US) to a final volume of 5 mL (i.e., for femoral arteries and carotids) of 10 mL (i.e., for heart, kidneys, and aorta). Calcium content was quantified via inductively coupled plasma optical emission spectrometry (ICP-OES) using an Optima 7300 DV ICP-OES System spectrometer (PerkinElmer, Inc., Waltham, MA, US) according to the manufacturer's instructions. Average blood perfusion recovery compared to vehicle and sham were also calculated. Recovery for sham was 100%. Blood perfusion recovery calculated was using the following equation: 100-((BP sham-BP new drug)/(BP sham-BP vehicle)*100).

blood perfusion = test: In vivo blood perfusion (laser doppler perfusion imaging) in vitamin D3-induced limb ischemia rat model; conditions: average blood perfusion recovery vs vehicle and sham (sham 100%), SD rats, 30 mg/kg s.c. daily D1-D5
Experimental: as §1, with “to D5. Limb functional and ischemia status were evaluated by using a laser doppler perfusion imaging apparatus PeriCam PSI Normal Resolution (Perimed AB, Järfälla, SE) in all groups at D0 and D5. The perfusion difference and perfusion ratio were calculated by comparing the baseline and either D0 or D5 readings for each group. In addition, the blood perfusion ratio of each treatment group (i.e., groups 2 to 9) to sham group was also calculated. All rats” for “to D5. All rats”

[1] = In vitro inhibition of calcium phosphate crystallization in human plasma (spectrophotometric assay); format: biochemical; conditions: 0-100 μM, 1.5 mM phosphate, 12.5 mM calcium, pH 7.4, absorbance 550 nm, slope 6-24 min, read-out: Relative Potency
Outline: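 Human plasma spiked with compound (0-100 μM), centrifuged, then brought to final 1.5 mM phosphate and 12.5 mM calcium, pH 7.4. Absorbance at 550 nm read every 3 min for 30 min at rt; inhibition from slopes (6-24 min, absorbance vs log time) relative to blank plasma.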

SMILES	Inhibition of calcification (%) Aorta (tissue calcification)	Inhibition of calcification (%) Carotid (tissue calcification)	Inhibition of calcification (%) Femoral (tissue calcification)	Inhibition of calcification (%) Heart (tissue calcification)	Inhibition of calcification (%) Kidney (tissue calcification)	BP recovery (%) (blood perfusion)	EC50 [1]
COCCCCCO[C@@H]1[C@@H](OP(=O)([O-])[O-])[C@H](OCCCCCOC)[C@@H](OP(=O)([O-])[O-])[C@@H](OP(=O)([O-])[O-])[C@H]1OP(=O)([O-])[O-].[Na+].[Na+].[Na+].[Na+].[Na+].[Na+].[Na+].[Na+] [Compound 9, 4,6-O-bis(5-methoxypentyl)-myo-inositol-1,2,3,5-tetrakis(phosphate) octasodium salt]	Under (Average inhibition percentage over or under 25% inhibition of calcification.)	Under (Average inhibition percentage over or under 25% inhibition of calcification.)	Over (Average inhibition percentage over or under 25% inhibition of calcification.)	Over (Average inhibition percentage over or under 25% inhibition of calcification.)	Over (Average inhibition percentage over or under 25% inhibition of calcification.)	Over (Average blood perfusion recovery over or under 25%.)	≤ 5 µM
COCc1cn(CCCCCCO[C@@H]2[C@@H](OP(=O)([O-])[O-])[C@H](OCCCCCCn3cc(COC)nn3)[C@@H](OP(=O)([O-])[O-])[C@@H](OP(=O)([O-])[O-])[C@H]2OP(=O)([O-])[O-])nn1.[Na+].[Na+].[Na+].[Na+].[Na+].[Na+].[Na+].[Na+] [Compound 39, 4,6-O-bis(6-(4-(methoxymethyl)-1H-1,2,3-triazol-1-yl)hexyl)-myo-inositol-1,2,3,5-tetrakis(phosphate) octasodium salt]	Over (Average inhibition percentage over or under 25% inhibition of calcification.)	Under (Average inhibition percentage over or under 25% inhibition of calcification.)	Over (Average inhibition percentage over or under 25% inhibition of calcification.)	Over (Average inhibition percentage over or under 25% inhibition of calcification.)	Over (Average inhibition percentage over or under 25% inhibition of calcification.)	Over (Average blood perfusion recovery over or under 25%.)	≤ 5 µM
